Assay results taken from the supplement of paper PMC10307832.

What was measured:
Assay in all cases: relative viability (nuclei count vs DMSO), 5 days (fraction); higher = more cells survive
NCI-H1648 = tested on: NCI-H1648
How it was run: (§1)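 Lung cancer cell lines, seeded in 1536-well plates, were treated the following day by pin tool with a single drug or with five library-drug doses (not always all listed) in √10 steps on top of a fixed anchor-drug dose. Cells were fixed and nuclei stained in one step after 5 days, and nuclei were counted. Relative viability is the nuclei count for treated wells divided by that for vehicle wells, reported as medians of duplicate plates.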

RERF-LC-KJ = tested on: RERF-LC-KJ
How it was run: as §1

NCI-H520 = tested on: NCI-H520
How it was run: as §1

A549 = tested on: A549
How it was run: as §1

NCI-H522 = tested on: NCI-H522
How it was run: as §1

NCI-H1651 = tested on: NCI-H1651
How it was run: as §1

IA-LM = tested on: IA-LM
How it was run: as §1

NC(=O)Nc1cc(-c2cccc(F)c2)sc1C(=O)N[C@H]1CCCNC1 [AZD7762] + Nc1ncn([C@H]2C[C@H](O)[C@@H](CO)O2)c(=O)n1 [Decitabine] (partner 2 µM) showed a relative viability (NCI-H1648; first compound 0.01 µM) of 0.512, a relative viability (NCI-H1648; first compound 0.03162 µM) of 0.671 and a relative viability (NCI-H1648; first compound 0.1 µM) of 0.415. The relative viability (NCI-H1648; first compound 0.3162 µM) was 0.462, the relative viability (NCI-H1648; first compound 1 µM) was 0.437 and the relative viability (RERF-LC-KJ; first compound 0.01 µM) was 0.743. It also gave a relative viability (RERF-LC-KJ; first compound 0.03162 µM) of 0.793, a relative viability (RERF-LC-KJ; first compound 0.1 µM) of 0.962 and a relative viability (RERF-LC-KJ; first compound 0.3162 µM) of 0.845. The relative viability (RERF-LC-KJ; first compound 1 µM) was 0.611, the relative viability (NCI-H520; first compound 0.01 µM) was 0.521 and the relative viability (NCI-H520; first compound 0.03162 µM) was 0.522. For the same compound, the relative viability (NCI-H520; first compound 0.1 µM) was 0.52, the relative viability (NCI-H520; first compound 0.3162 µM) was 0.475 and the relative viability (NCI-H520; first compound 1 µM) was 0.246. For the same compound, the relative viability (A549; first compound 0.01 µM) was 0.305, the relative viability (A549; first compound 0.03162 µM) was 0.252 and the relative viability (A549; first compound 0.1 µM) was 0.27. For the same compound, the relative viability (A549; first compound 0.3162 µM) was 0.281, the relative viability (A549; first compound 1 µM) was 0.202 and the relative viability (NCI-H522; first compound 0.01 µM) was 0.668. It also gave a relative viability (NCI-H522; first compound 0.03162 µM) of 0.709, a relative viability (NCI-H522; first compound 0.1 µM) of 0.714 and a relative viability (NCI-H522; first compound 0.3162 µM) of 0.689. For the same compound, the relative viability (NCI-H522; first compound 1 µM) was 0.686, the relative viability (NCI-H1651; first compound 0.01 µM) was 0.612 and the relative viability (NCI-H1651; first compound 0.03162 µM) was 0.887. For the same compound, the relative viability (NCI-H1651; first compound 0.1 µM) was 0.698, the relative viability (NCI-H1651; first compound 0.3162 µM) was 0.692 and the relative viability (NCI-H1651; first compound 1 µM) was 0.315.
With NC(=O)Nc1cc(-c2cccc(F)c2)sc1C(=O)N[C@H]1CCCNC1 [AZD7762] + O=C(CCCCCCC(=O)Nc1ccccc1)NO [Vorinostat] (partner 1 µM) the relative viability (NCI-H1648; first compound 0.01 µM) was 0.735, the relative viability (NCI-H1648; first compound 0.03162 µM) was 0.488 and the relative viability (NCI-H1648; first compound 0.1 µM) was 0.45. For the same compound, the relative viability (NCI-H1648; first compound 0.3162 µM) was 0.472, the relative viability (NCI-H1648; first compound 1 µM) was 0.421 and the relative viability (RERF-LC-KJ; first compound 0.01 µM) was 0.749. The relative viability (RERF-LC-KJ; first compound 0.03162 µM) was 0.695, the relative viability (RERF-LC-KJ; first compound 0.1 µM) was 0.711 and the relative viability (RERF-LC-KJ; first compound 0.3162 µM) was 0.722. For the same compound, the relative viability (RERF-LC-KJ; first compound 1 µM) was 0.601, the relative viability (IA-LM; first compound 0.01 µM) was 1.04 and the relative viability (IA-LM; first compound 0.03162 µM) was 0.984. The relative viability (IA-LM; first compound 0.1 µM) was 1.04, the relative viability (IA-LM; first compound 0.3162 µM) was 0.74 and the relative viability (IA-LM; first compound 1 µM) was 1.17. It also gave a relative viability (NCI-H520; first compound 0.01 µM) of 0.78, a relative viability (NCI-H520; first compound 0.03162 µM) of 0.825 and a relative viability (NCI-H520; first compound 0.1 µM) of 0.635. For the same compound, the relative viability (NCI-H520; first compound 0.3162 µM) was 0.375, the relative viability (NCI-H520; first compound 1 µM) was 0.187 and the relative viability (NCI-H522; first compound 0.01 µM) was 0.869. It also gave a relative viability (NCI-H522; first compound 0.03162 µM) of 0.923, a relative viability (NCI-H522; first compound 0.1 µM) of 0.912 and a relative viability (NCI-H522; first compound 0.3162 µM) of 0.624. It also gave a relative viability (NCI-H522; first compound 1 µM) of 0.783, a relative viability (NCI-H1651; first compound 0.01 µM) of 0.569 and a relative viability (NCI-H1651; first compound 0.03162 µM) of 0.727. The relative viability (NCI-H1651; first compound 0.1 µM) was 0.587, the relative viability (NCI-H1651; first compound 0.3162 µM) was 0.533 and the relative viability (NCI-H1651; first compound 1 µM) was 0.272.
CC1(C)CCC(c2ccc(Cl)cc2)=C(CN2CCN(c3ccc(C(=O)NS(=O)(=O)c4ccc(N[C@H](CCN5CCOCC5)CSc5ccccc5)c(S(=O)(=O)C(F)(F)F)c4)cc3)CC2)C1 [Navitoclax] + CC(=O)Nc1cccc(-n2c(=O)n(C3CC3)c(=O)c3c(Nc4ccc(I)cc4F)n(C)c(=O)c(C)c32)c1 [Trametinib] (partner 0.02 µM) gave a relative viability (NCI-H1648; first compound 0.005 µM) of 0.541, a relative viability (NCI-H1648; first compound 0.01581 µM) of 0.427 and a relative viability (NCI-H1648; first compound 0.1581 µM) of 0.453. For the same compound, the relative viability (NCI-H1648; first compound 0.5 µM) was 0.402, the relative viability (RERF-LC-KJ; first compound 0.005 µM) was 0.823 and the relative viability (RERF-LC-KJ; first compound 0.01581 µM) was 0.847. It also gave a relative viability (RERF-LC-KJ; first compound 0.05 µM) of 0.969, a relative viability (RERF-LC-KJ; first compound 0.1581 µM) of 0.938 and a relative viability (RERF-LC-KJ; first compound 0.5 µM) of 0.985. For the same compound, the relative viability (NCI-H520; first compound 0.005 µM) was 0.673, the relative viability (NCI-H520; first compound 0.01581 µM) was 0.653 and the relative viability (NCI-H520; first compound 0.05 µM) was 0.631. It also gave a relative viability (NCI-H520; first compound 0.1581 µM) of 0.603, a relative viability (NCI-H520; first compound 0.5 µM) of 0.693 and a relative viability (NCI-H522; first compound 0.005 µM) of 0.753. It also gave a relative viability (NCI-H522; first compound 0.01581 µM) of 0.782, a relative viability (NCI-H522; first compound 0.05 µM) of 0.778 and a relative viability (NCI-H522; first compound 0.1581 µM) of 0.627. It also gave a relative viability (NCI-H522; first compound 0.5 µM) of 0.725, a relative viability (NCI-H1651; first compound 0.005 µM) of 0.822 and a relative viability (NCI-H1651; first compound 0.01581 µM) of 0.921. It also gave a relative viability (NCI-H1651; first compound 0.05 µM) of 0.61, a relative viability (NCI-H1651; first compound 0.1581 µM) of 0.771 and a relative viability (NCI-H1651; first compound 0.5 µM) of 0.864.
